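Tested at 5 concentrations; 48 h exposure; 96-well plates; endpoints linearly interpolated, else capped at highest concentration. TGI: total growth inhibition.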
Key:
Assay in all cases: DTP human tumour cell line panel, 48 h
[1] = tested on: 786-0 renal
[2] = tested on: A498 renal
[3] = tested on: A549 NSCLC
[4] = tested on: ACHN renal
[5] = tested on: BT-549 breast
[6] = tested on: CAKI-1 renal
[7] = tested on: CCRF-CEM leukemia
[8] = tested on: COLO 205 colon
[9] = tested on: DU-145 prostate
[10] = tested on: EKVX NSCLC
[11] = tested on: HCC-2998 colon
[12] = tested on: HCT-116 colon
[13] = tested on: HCT-15 colon
[14] = tested on: HL-60(TB) leukemia
[15] = tested on: HOP-62 NSCLC
[16] = tested on: HOP-92 NSCLC
[17] = tested on: HS 578T breast
[18] = tested on: HT29 colon
[19] = tested on: IGROV1 ovarian
[20] = tested on: K-562 leukemia
[21] = tested on: KM12 colon
[22] = tested on: LOX IMVI melanoma
[23] = tested on: M14 melanoma
[24] = tested on: MALME-3M melanoma
[25] = tested on: MCF7 breast
[26] = tested on: MDA-MB-231 breast
[27] = tested on: MDA-MB-435
[28] = tested on: MDA-N
[29] = tested on: MOLT-4 leukemia
[30] = tested on: NCI-H226 lung
[31] = tested on: NCI-H23 lung
[32] = tested on: NCI-H460 lung
[33] = tested on: NCI/ADR-RES ovarian
[34] = tested on: OVCAR-3 ovarian
[35] = tested on: OVCAR-4 ovarian
[36] = tested on: OVCAR-5 ovarian
[37] = tested on: OVCAR-8 ovarian
[38] = tested on: PC-3 prostate
[39] = tested on: SF-295 CNS
[40] = tested on: SF-539 CNS
[41] = tested on: SK-MEL-2 melanoma
[42] = tested on: SK-MEL-28 melanoma
[43] = tested on: SK-MEL-5 melanoma
[44] = tested on: SK-OV-3 ovarian
[45] = tested on: SN12C renal
[46] = tested on: SNB-19 CNS
[47] = tested on: SNB-75 CNS
[48] = tested on: SR leukemia
[49] = tested on: SW-620 colon
[50] = tested on: T-47D breast
[51] = tested on: TK-10 renal
[52] = tested on: U251 CNS
[53] = tested on: UACC-257 melanoma
[54] = tested on: UACC-62 melanoma
[55] = tested on: UO-31 renal

SMILES: O=C1/C(=C/c2ccc(Cl)cc2)CCC/C1=C\c1ccc(O)c(CN2CCCCC2)c1
- TGI [1]: 34.5 µM
- TGI [2]: 30 µM
- TGI [3]: > 100 µM
- TGI [4]: 30.7 µM
- TGI [5]: 31 µM
- TGI [6]: 40.2 µM
- TGI [7]: 35 µM
- TGI [8]: 59.3 µM
- TGI [9]: 36.9 µM
- TGI [10]: 40.7 µM
- TGI [11]: 38.7 µM
- TGI [12]: 33.5 µM
- TGI [13]: 27.2 µM
- TGI [14]: 7.25 µM
- TGI [15]: > 100 µM
- TGI [16]: 42.1 µM
- TGI [17]: 46 µM
- TGI [18]: 17.5 µM
- TGI [19]: 44 µM
- TGI [20]: 66.1 µM
- TGI [21]: 16.7 µM
- TGI [22]: 42.5 µM
- TGI [23]: 49.3 µM
- TGI [24]: 59.1 µM
- TGI [25]: > 100 µM
- TGI [26]: 63.6 µM
- TGI [27]: > 100 µM
- TGI [28]: > 100 µM
- TGI [29]: 69.4 µM
- TGI [30]: 35.5 µM
- TGI [31]: 49.1 µM
- TGI [32]: 94.3 µM
- TGI [33]: 51.8 µM
- TGI [34]: 87.5 µM
- TGI [35]: 44.2 µM
- TGI [36]: 50.4 µM
- TGI [37]: 48.8 µM
- TGI [38]: > 100 µM
- TGI [39]: 43.3 µM
- TGI [40]: 58.3 µM
- TGI [41]: > 100 µM
- TGI [42]: 62.6 µM
- TGI [43]: 35.3 µM
- TGI [44]: 89.5 µM
- TGI [45]: 87.8 µM
- TGI [46]: > 100 µM
- TGI [47]: > 100 µM
- TGI [48]: 9.67 µM
- TGI [49]: > 100 µM
- TGI [50]: 63.5 µM
- TGI [51]: 79.2 µM
- TGI [52]: 57.1 µM
- TGI [53]: 90.7 µM
- TGI [54]: 36 µM
- TGI [55]: 31.5 µM
